Experimental data taken from article PMC7167990, “Therapeutic Effects of Atranorin towards the Proliferation of Babesia and Theileria Parasites” (Pathogens, 2020).

Columns and labels:
NIH/3T3 cells = assay: Cytotoxicity assay (CCK-8 cell viability); type: cell-based, mouse
Method: (§1) Cultures of human foreskin fibroblast (HFF; HFF-1 ATCC® SCRC-1041™), Madin–Darby bovine kidney (MDBK; ECACC) and mouse embryonic fibroblast (NIH/3T3; ATCC® CRL-1658™) cells were retrieved from −80 °C stock and cultured continuously at 37 °C under atmosphere 5% CO2 in our laboratory. The NIH/3T3 and HFFs cells were maintained in Dulbecco Modified Eagle’s Medium (DMEM; Gibco, Grand Island, NY, USA), while MDBK cell line grown in Minimum Essential Medium Eagle (MEM; Gibco). Each medium was treated with 0.5% penicillin/streptomycin (Gibco), 10% inactivated fetal bovine serum and 2 mM glutamine. Every 72 to 96 h, the medium was replaced, and once 80% confluence was reached, the cell collection was performed by sub-culture protocol. To confirm the absence of mycoplasma contamination, 4,6-diamidino-2-phenylindole dihydrochloride stain (Sigma-Aldrich) was used.
(§2) The cell viability test was conducted in a 96-well plate as described elsewhere. Briefly, an aliquot of (100 µL) cells was implanted at a concentration of 5 × 10^4 cells/mL in DMEM or MEM with fetal bovine serum and incubated overnight under atmosphere 5% CO2 at 37 °C for attachment. Using two-fold dilutions, aliquots (10 µL) of drugs were added in triplicate per well to attain final concentrations of 50 to 1000 µM and further incubated for 24 h. The positive control wells containing cells mixed with the medium in 0.4% DMSO, whereas the negative control wells containing culture medium only. After a 24-h incubation, Cell Counting Kits-8 (CCK-8, 10 µL) was added to each well and then plate incubation was conducted for an additional 3 h and a microplate reader was used to assess the absorbance at 450 nm.

MDBK cells = assay: Cytotoxicity assay (CCK-8 cell viability); type: cell-based, bovine
Method: as §1, §2

[1] = Hematology parameters (HGB, HCT, RBCs) in B. microti-infected treated mice; type: in vivo, BALB/c mice; set-up: HGB Mean: unit not given beside the values; RBCs Mean: unit not given here; conditions: DA 25, AV 20, ATR 25, ATR 12.5+DA 12.5, ATR 12.5+AV 10 mg/kg BW, days 4-8 p.i.
B. divergens = assay: In vitro growth inhibition, Babesia fluorescent (SYBR Green I) assay; type: cell-based; conditions: 4 days culture, mean of triplicate experiments
Method: (§3) Babesia parasite was incubated and maintained at 37 °C in a humidifying chamber under 5% CO2, 5% O2, and 90% N2 atmosphere using a microaerophilic stationary-phase culture for conducting the in vitro experiment. Briefly, Germany strain Babesia divergens was cultured in cattle RBCs in Roswell Park Memorial Institute 1640 (RPMI 1640; Sigma-Aldrich, St. Louis, MO, USA) medium replenished with 40% cattle serum, while culture medium 199 (M199; Sigma-Aldrich) was utilized for the Argentina strain B. bigemina and Texas strain B. bovis, and T. equi USDA strain cultured in cattle RBCs supplemented with 40% cattle serum and horse RBCs maintained in hypoxanthine (MP Biomedicals, Santa Ana, CA, USA; final concentration 13.6 μg/mL) and 40% horse serum, respectively. GIT medium complemented with 40% horse serum was used as a growth medium for the USDA strain of B. caballi cultured in horse RBCs. To ensure free-bacterial contamination, amphotericin B (0.15 μg/mL) (Sigma-Aldrich), streptomycin (60 U/mL) and penicillin G (60 U/mL) were added to all medium.
(§4) The Babesia fluorescent assay was carried out on the in vitro culture as previously reported elsewhere to assess the growth of the inhibitory effectiveness of ATR and the combination treatment with DA, CF, and AV. Briefly, in three separate trials, using two-fold dilution, different concentrations of ATR, DA, CF, and AV were prepared in the culture medium and added in 96-well plates in triplicate with 1% parasitemia for T. equi, B. divergens and B. caballi at 5% HCT, while for B. bigemina and B. bovis using 2.5% HCT. The drug combined efficacy was conducted at the same time with the single-treatment assay in accordance with the Chou–Talalay method. […] On day four of culture, an aliquot (100 µL) of lysis buffer mixed with 0.2μL/mL SG1 was added per well; subsequently, it was covered with aluminum foil to prevent exposure to light. After incubation for 6-h at 37 °C, fluorescence readings were acquired on a spectrofluorimeter (Fluoroskan Ascent, Thermo Fisher Scientific, Oceanside, CA, USA) with a 485 nm excitation wavelength and a 518 nm emission wavelength.
(§5) The IC50 values of ATR, DA, CF, and AV were established from the in vitro growth inhibition by nonlinear regression curve fit on a GraphPad Prism (GraphPad Software Inc., San Diego, CA, USA). […] The significant variations (p < 0.05) among group mean values on parasitemia and one-way ANOVA Tukey’s test in GraphPad Prism version 5.0 was used to analyze hematology profiles in mice infected with B. microti.

T. equi = assay: as above; type: cell-based; conditions: 4 days culture, mean of triplicate experiments
Method: as §3, §4, §5

B. caballi = assay: as above; type: cell-based; conditions: 4 days culture, mean of triplicate experiments
Method: as §3, §4, §5

B. bigemina = assay: as above; type: cell-based; conditions: 4 days culture, mean of triplicate experiments
Method: as §3, §4, §5

B. bovis = assay: as above; type: cell-based; conditions: 4 days culture, mean of triplicate experiments
Method: as §3, §4, §5

B. microti = conditions: B. microti-infected BALB/c mice, days 4-8 p.i.

SMILES: CC(=O)NCC(=O)O.CC(=O)NCC(=O)O.N=C(N)c1ccc(N=NNc2ccc(C(=N)N)cc2)cc1 [DA, diminazene aceturate]
- Selective Index NIH/3T3 (NIH/3T3 cells; EC50 NIH/3T3 / IC50 B. bigemina): ˃147.1
- Selective Index NIH/3T3 (NIH/3T3 cells; EC50 NIH/3T3 / IC50 B. bovis): ˃285.7
- Selective Index NIH/3T3 (NIH/3T3 cells; EC50 NIH/3T3 / IC50 B. caballi): ˃5000
- Selective Index NIH/3T3 (NIH/3T3 cells; EC50 NIH/3T3 / IC50 B. divergens): ˃232.5
- Selective Index NIH/3T3 (NIH/3T3 cells; EC50 NIH/3T3 / IC50 T. equi): ˃140.8
- EC50 (NIH/3T3 cells; NIH/3T3 cells, 24 h, CCK-8, read-out: EC50 NIH/3T3): > 100000 nM
- Selective Index MDBK (MDBK cells; EC50 MDBK / IC50 B. bigemina): ˃147.1
- Selective Index MDBK (MDBK cells; EC50 MDBK / IC50 B. bovis): ˃285.7
- Selective Index MDBK (MDBK cells; EC50 MDBK / IC50 B. caballi): ˃5000
- Selective Index MDBK (MDBK cells; EC50 MDBK / IC50 B. divergens): ˃232.5
- Selective Index MDBK (MDBK cells; EC50 MDBK / IC50 T. equi): ˃140.8
- EC50 (MDBK cells; MDBK cells, 24 h, CCK-8): > 100000 nM
- HCT Mean ([1]; day 0): 46.48%
- HGB Mean ([1]; day 0): 15.64
- RBCs Mean ([1]; day 0): 990.625
- HCT Mean ([1]; day 4): 46.18%
- HGB Mean ([1]; day 4): 13.64
- RBCs Mean ([1]; day 4): 954.75
- HCT Mean ([1]; day 8): 46.18%
- HGB Mean ([1]; day 8): 14.72
- RBCs Mean ([1]; day 8): 888.25
- HCT Mean ([1]; day 12): 44.1%
- HGB Mean ([1]; day 12): 13.6
- RBCs Mean ([1]; day 12): 860
- HCT Mean ([1]; day 16): 45.52%
- HGB Mean ([1]; day 16): 14.46
- RBCs Mean ([1]; day 16): 870.25
- HCT Mean ([1]; day 20): 44.14%
- HGB Mean ([1]; day 20): 15.02
- RBCs Mean ([1]; day 20): 880
- HCT Mean ([1]; day 24): 46%
- HGB Mean ([1]; day 24): 15.2
- RBCs Mean ([1]; day 24): 888
- HCT Mean ([1]; day 28): 47%
- HGB Mean ([1]; day 28): 15.64
- RBCs Mean ([1]; day 28): 984.75
- HCT Mean ([1]; day 32): 49%
- HGB Mean ([1]; day 32): 15.94
- RBCs Mean ([1]; day 32): 990.625
- HCT Mean ([1]; day 36): 49%
- HGB Mean ([1]; day 36): 16.64
- RBCs Mean ([1]; day 36): 997.625
- IC50 (B. divergens): 430 ± 50 nM
- IC50 (T. equi): 710 ± 50 nM
- IC50 (B. caballi): 20 nM
- IC50 (B. bigemina): 680 ± 90 nM
- IC50 (B. bovis): 350 ± 60 nM
- first day on which parasitemia was not detected by microscopy (B. microti; DA 25, AV 20, ATR 25, ATR 12.5+DA 12.5, ATR 12.5+AV 10 mg/kg BW): 16 day p.i.
- peak parasitemia level (B. microti; DA at 25 mg/kg, peak on day 10): 7.94%
